PubChem BioAssay AID330 (DTP/NCI, 2004)
Values joined by “and” are separate entries in the source; they are usually repeats but may differ in a detail not shown here. Equal entries are not always repeated. Inconclusive results and toxic doses are left out. The calls were made as follows: active = survival T/C of 150% or more; inactive = T/C below 125% in these data.

Test system: P388 leukemia ip, CD2F1 mice, survival T/C
Test: NCI In Vivo Anticancer Drug Screen. Data for tumor model P388 Leukemia (intraperitoneal) in CD2F1 (CDF1) mice
Conditions: endpoint: median survival time, higher = longer survival
Procedure, shortened: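 Mice carrying the transplanted tumor received test compound or vehicle. Survival was recorded in each group, and the value is the treated-group measurement divided by that of the vehicle-treated control group.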

[1] = dose: 50.0 mg/kg/injection, schedule: Q01DX005 (ip), vehicle: Klucel (hydroxypropylcellulose) (HPC)
[2] = dose: 100.0 mg/kg/injection, schedule: Q01DX005 (ip), vehicle: Klucel (hydroxypropylcellulose) (HPC)
[3] = dose: 200.0 mg/kg/injection, schedule: Q01DX005 (ip), vehicle: Klucel (hydroxypropylcellulose) (HPC)
[4] = dose: 100.0 mg/kg/injection, schedule: Q04DX002 (ip), vehicle: Klucel (hydroxypropylcellulose) (HPC)
[5] = dose: 200.0 mg/kg/injection, schedule: Q04DX002 (ip), vehicle: Klucel (hydroxypropylcellulose) (HPC)
[6] = dose: 400.0 mg/kg/injection, schedule: Q04DX002 (ip), vehicle: Klucel (hydroxypropylcellulose) (HPC)
[7] = dose: 12.5 mg/kg/injection, schedule: Q01DX009 (ip), vehicle: saline with Tween-80
[8] = dose: 25.0 mg/kg/injection, schedule: Q01DX009 (ip), vehicle: saline with Tween-80
[9] = dose: 50.0 mg/kg/injection, schedule: Q01DX009 (ip), vehicle: saline with Tween-80
[10] = dose: 50.0 mg/kg/injection, schedule: Q01DX009 (ip), vehicle: saline
[11] = dose: 100.0 mg/kg/injection, schedule: Q01DX009 (ip), vehicle: saline
[12] = dose: 12.5 mg/kg/injection, schedule: Q01DX009 (ip), vehicle: saline
[13] = dose: 100.0 mg/kg/injection, schedule: Q01DX009 (ip), vehicle: saline with Tween-80
[14] = dose: 200.0 mg/kg/injection, schedule: Q01DX009 (ip), vehicle: saline with Tween-80
[15] = dose: 25.0 mg/kg/injection, schedule: Q01DX005 (ip), vehicle: Klucel (hydroxypropylcellulose) (HPC)
[16] = dose: 50.0 mg/kg/injection, schedule: Q01DX005 (ip), vehicle: saline with Tween-80
[17] = dose: 100.0 mg/kg/injection, schedule: Q01DX005 (ip), vehicle: saline with Tween-80
[18] = dose: 200.0 mg/kg/injection, schedule: Q01DX005 (ip), vehicle: saline with Tween-80
[19] = dose: 200.0 mg/kg/injection, schedule: Q01DX009 (ip), vehicle: saline
[20] = dose: 100.0 mg/kg/injection, schedule: Q01DX001 (ip), vehicle: Klucel (hydroxypropylcellulose) (HPC)
[21] = dose: 200.0 mg/kg/injection, schedule: Q01DX001 (ip), vehicle: Klucel (hydroxypropylcellulose) (HPC)
[22] = dose: 50.0 mg/kg/injection, schedule: Q01DX009 (ip), vehicle: Klucel (hydroxypropylcellulose) (HPC)
[23] = dose: 100.0 mg/kg/injection, schedule: Q01DX009 (ip), vehicle: Klucel (hydroxypropylcellulose) (HPC)
[24] = dose: 200.0 mg/kg/injection, schedule: Q01DX009 (ip), vehicle: Klucel (hydroxypropylcellulose) (HPC)

Measured: T/C

N#CC1OC1c1cccc[n+]1[O-] (centres undefined)
inactive: dose: 6.25 mg/kg/injection, schedule: Q01DX005 (ip), vehicle: saline with Tween-80 98 % of control | dose: 6.25 mg/kg/injection, schedule: Q01DX005 (ip), vehicle: saline 104 % of control | dose: 12.5 mg/kg/injection, schedule: Q01DX005 (ip), vehicle: saline with Tween-80 98 % of control | dose: 12.5 mg/kg/injection, schedule: Q01DX005 (ip), vehicle: saline 96 % of control | dose: 25.0 mg/kg/injection, schedule: Q01DX005 (ip), vehicle: saline 102 % of control

CCCc1cc2ccccc2c2ccccc12
inactive: [1] 102 % of control | [2] 96 % of control | [3] 99 % of control

O=C1CC2(CCCC2)CC(=O)N1c1ccc(O)c(CN2CCOCC2)c1
inactive: [4] 97 % of control | [5] 89 % of control | [6] 90 % of control

COn1nnc2c([N+](=O)[O-])cccc21
inactive: [7] 100 % of control | [8] 94 % of control | [9] 98 % of control

C[CH2][Sn]([Br])([c]1ccccc1)[c]1ccccc1CN(C)C (centres undefined)
inactive: [10] 91 % of control | [11] 98 % of control

CC1(C)N=NC2(Br)C3CCC(C3)C12 (centres undefined)
inactive: [4] 102 % of control | [5] 97 % of control | [6] 100 % of control

COc1ccc(C2COc3c(ccc(O)c3O)C2)cc1 (centres undefined)
inactive: dose: 60.0 mg/kg/injection, schedule: Q01DX005 (ip), vehicle: saline with Tween-80 104 % of control | dose: 120.0 mg/kg/injection, schedule: Q01DX005 (ip), vehicle: saline with Tween-80 96 % of control | dose: 240.0 mg/kg/injection, schedule: Q01DX005 (ip), vehicle: saline with Tween-80 99 % of control

CC[C@@H]1CN2CCc3c([nH]c4ccccc34)[C@@](C(=O)OC)(c3cc4c(cc3OC)N(C)[C@H]3[C@@](O)(C(=O)OC)[C@H](OC(C)=O)[C@]5(CC)C=CCN6CC[C@]43[C@@H]65)C[C@H](C2)C1=O
inactive: dose: 1.0 mg/kg/injection, schedule: Q01DX001 (ip), vehicle: water 104 % of control | dose: 2.0 mg/kg/injection, schedule: Q01DX001 (ip), vehicle: water 108 % of control | dose: 4.0 mg/kg/injection, schedule: Q01DX001 (ip), vehicle: distilled water + Tween-80 119 % of control | dose: 4.0 mg/kg/injection, schedule: Q01DX001 (ip), vehicle: water 120 % of control | dose: 8.0 mg/kg/injection, schedule: Q01DX001 (ip), vehicle: distilled water + Tween-80 117 % of control | dose: 16.0 mg/kg/injection, schedule: Q01DX001 (ip), vehicle: distilled water + Tween-80 119 % of control

CN(NC=O)C(=N)N
inactive: dose: 50.0 mg/kg/injection, schedule: Q01DX001 (ip), vehicle: saline 109 % of control | dose: 100.0 mg/kg/injection, schedule: Q01DX001 (ip), vehicle: saline 100 % of control | dose: 200.0 mg/kg/injection, schedule: Q01DX001 (ip), vehicle: saline 102 % of control

Nc1ccc(O)cc1O
inactive: dose: 1.56 mg/kg/injection, schedule: Q01DX009 (ip), vehicle: saline 98 % of control | dose: 3.12 mg/kg/injection, schedule: Q01DX009 (ip), vehicle: saline 109 % of control | dose: 6.25 mg/kg/injection, schedule: Q01DX009 (ip), vehicle: saline 106 % of control | [12] 118 % of control and 119 % of control

C/C(=N/NC(=O)c1ccccc1)c1ccccc1O
inactive: [9] 104 % of control | [13] 100 % of control | [14] 104 % of control | dose: 400.0 mg/kg/injection, schedule: Q01DX009 (ip), vehicle: saline with Tween-80 107 % of control

CCCCCCCCCCn1cc[nH]c1=S
inactive: [15] 103 % of control | [1] 107 % of control and 115 % of control | [2] 105 % of control and 112 % of control | [3] 117 % of control

Cc1nn(C(=S)S)c(C)c1N=Nc1ccccc1Cl
inactive: [16] 111 % of control | [17] 117 % of control | [18] 108 % of control

CCOP(=O)(CC(=O)O)OCC
inactive: [10] 100 % of control | [11] 102 % of control | [19] 93 % of control

Cc1cccc(C(O)(c2cccc(C)c2)C2(O)CCN(C)CC2)c1
inactive: [15] 98 % of control | [1] 98 % of control | [2] 102 % of control

CC(C)OC(=O)NC1CCC2CCCCC2C1 (centres undefined)
inactive: [10] 102 % of control | [11] 102 % of control | [19] 100 % of control

CCCCCCCCOS(=O)(=O)c1ccc([N+](C)(C)C)cc1
inactive: [12] 103 % of control | dose: 25.0 mg/kg/injection, schedule: Q01DX009 (ip), vehicle: saline 105 % of control | [10] 110 % of control

CN(C)C(=O)c1cccc2ccc[n+](C)c12
inactive: dose: 78.0 micrograms/kg/injection, schedule: Q04DX002 (ip), vehicle: saline 98 % of control | dose: 156.0 micrograms/kg/injection, schedule: Q04DX002 (ip), vehicle: saline 99 % of control | dose: 312.0 micrograms/kg/injection, schedule: Q04DX002 (ip), vehicle: saline 98 % of control

CN(/N=C\c1ccccc1)C(=N)N(C)/N=C/c1ccccc1
inactive: [20] 91 % of control | [21] 96 % of control

CCCSc1nc2ccc(NC(=O)/C=C/C(=O)O)cc2s1
inactive: [22] 107 % of control | [23] 96 % of control | [24] 103 % of control

COc1cccc2c1C(=O)OC2=O
inactive: dose: 12.5 mg/kg/injection, schedule: Q01DX009 (ip), vehicle: Klucel (hydroxypropylcellulose) (HPC) 105 % of control | dose: 25.0 mg/kg/injection, schedule: Q01DX009 (ip), vehicle: Klucel (hydroxypropylcellulose) (HPC) 105 % of control | [22] 112 % of control | [23] 97 % of control | [24] 96 % of control

COc1ccc(C2N=C(N)Nc3nc[nH]c32)c(OC)c1 (centres undefined)
inactive: dose: 50.0 mg/kg/injection, schedule: Q01DX009 (ip), vehicle: suspension in saline 102 % of control | dose: 100.0 mg/kg/injection, schedule: Q01DX009 (ip), vehicle: suspension in saline 115 % of control | dose: 200.0 mg/kg/injection, schedule: Q01DX009 (ip), vehicle: suspension in saline 109 % of control

COC(=O)C(N)Cc1cn(Cc2ccccc2)cn1 (centres undefined)
inactive: [9] 95 % of control | [13] 96 % of control | [14] 96 % of control

NC(=S)N/N=C/c1c(Br)nc2sccn12
inactive: [20] 97 % of control | [21] 89 % of control | dose: 400.0 mg/kg/injection, schedule: Q01DX001 (ip), vehicle: Klucel (hydroxypropylcellulose) (HPC) 89 % of control

CNC(=O)c1nnn(Cc2ccc(OC)cc2)c1Cl
inactive: [1] 91 % of control | [2] 100 % of control | [3] 100 % of control

CCOC(=O)c1c(C(=O)Nc2ccccc2)c(-c2ccccc2)n(NC(N)=O)c1C
inactive: [16] 104 % of control | [17] 105 % of control | [18] 98 % of control

CC(=O)C(=CN(C)c1ccc([N+](=O)[O-])cc1)C(C)=O
inactive: dose: 6.25 mg/kg/injection, schedule: Q01DX009 (ip), vehicle: saline with Tween-80 111 % of control | [7] 92 % of control | [8] 100 % of control | [11] 91 % of control | [19] 91 % of control

CCCCCCC(=O)/C=C/c1ccc(OS(=O)(=O)c2ccccc2)cc1
inactive: [9] 105 % of control | [13] 100 % of control | [14] 101 % of control
